A value given as a limit tells only on which side of the number the result lay.

This note sets out measurements from patent US20080280891A1, “Anti-cancer agents and uses thereof” (Locus Pharmaceuticals, Inc., priority 2006, published 2008).

In experiment [1] the test system is MCF-7 breast cancer cells. The experiment can be described thus: Cell cycle assay (Example 164), G2/M block in MCF-7 cells. The experiment is classed as cell-based. The note with it: 24 h, flow cytometry (PI); for activation at 0.1 µM: Homo sapiens, MCF7, Table 4; for MCF-7 G2/M Block 1 μM: Table 3. On the procedure:
(§1) The adherent MCF-7 breast cancer cells and NCI-H522 non small cell lung cancer cells were grown and maintained in EMEM cell culture media containing 10% fetal calf serum.
(§2) Cells were allowed to adhere for 24 hrs. After adherence, cell culture media was changed to that containing 0.5% FCS. Thirty minutes post-media change, test compounds were added at a concentration of either 1.0 or 0.1 μM (as specified in the Tables). Twenty-four hours after test agent addition, cells were analyzed for cell cycle status as described below.
(§3) Cell cycle status was analyzed by flow cytometry. Briefly, cells were collected and washed with FACs buffer (Pharmingen) and resuspended and fixed in 1 mL of 80% ethanol for 1 hr. Cells were washed with FACs buffer and resuspended in propidium iodide(PI)/RNase staining buffer (Pharmingen). PI is a fluorescent dye that labels nucleic acids such as DNA. The fluorescence within a cell (in the presence of PI) is proportional to the amount of DNA within a cell. The cell content of DNA is an indicator of status in the cell cycle. […] Cells in the S phase have DNA content that lies between these extremes.
(§4) For testing of cell cycle effects of test agents the percentage of cells within the G1 and G2/M phase were measured.

For experiment [2], the system named is NCI-H522 non small cell lung cancer cells. The experiment can be described thus: Cell cycle assay (Example 164), G2/M block in NCI-H522 cells. The experiment is classed as cell-based. The note with it: Homo sapiens, 0.1 μM, 24 h, flow cytometry (PI). As to the method:
as §1, §2, §3, §4

On to `CC(=O)Nc1cc(C(=O)c2ccnc(N3CCOCC3)c2)cc(-c2cccc3[nH]ccc23)c1` [N-[3-(1H-Indol-4-yl)-5-(2-morpholin-4-yl-pyridine-4-carbonyl)-phenyl]-acetamide], for which the activation at 0.1 µM in experiment [1] and in experiment [2] (Table 4) was no less than 50% each time.
With `CS(=O)(=O)Nc1cc(-c2ccc3c(c2)OCO3)cc(-c2cccc3[nH]ccc23)c1` [N-[3-benzo[1,3]dioxol-5-yl-5-(1H-indol-4-yl)-phenyl]-methanesulfonamide], the activation at 0.1 µM in experiment [1] and in experiment [2] (Table 4) was no less than 50% each time.
For the compound `CS(=O)(=O)Nc1cc(C(=O)c2ccnc(N3CCSCC3)c2)cc(-c2cccc3[nH]ccc23)c1` [N-[3-(1H-Indol-4-yl)-5-(2-thiomorpholin-4-yl-pyridine-4-carbonyl)-phenyl]-methanesulfonamide], the activation at 0.1 µM in experiment [1] and in experiment [2] (Table 4) was no less than 50% in each case.
As to `COC(=O)Nc1cc(C(=O)c2ccnc(OC)c2)cc(-c2cccc3[nH]ccc23)c1` [[3-(1H-Indol-4-yl)-5-(2-methoxy-pyridine-4-carbonyl)-phenyl]-carbamic acid methyl ester], the results for the activation at 0.1 µM in experiment [1] and in experiment [2] (Table 4) were no less than 50% and less than 50%, respectively.
For the compound `CS(=O)(=O)Nc1cc(-c2cccc(C(F)(F)F)c2)cc(-c2cccc3[nH]ccc23)c1` [N-[5-(1H-indol-4-yl)-3′-trifluoromethyl-biphenyl-3-yl]-methanesulfonamide], the activation at 0.1 µM in experiment [1] and in experiment [2] (Table 4) was no less than 50% each time.
For `CC(=O)Nc1cc(-c2ccncc2)cc(-c2cccc3[nH]ccc23)c1` [N-[3-(1H-Indol-4-yl)-5-pyridin-4-yl-phenyl]-acetamide], the activation at 0.1 µM in experiment [1] and in experiment [2] (Table 4) was no less than 50% in each case.
For the compound `COC(=O)Nc1cc(-c2cccnc2)cc(-c2cccc3[nH]ccc23)c1` [[3-(1H-Indol-4-yl)-5-pyridin-3-yl-phenyl]-carbamic acid methyl ester], the activation at 0.1 µM was less than 50% in experiment [1] and no less than 50% in experiment [2] (Table 4).
Take `CN(C)c1ncccc1Nc1cc(O)cc(-c2cccc3[nH]ccc23)c1` [3-(2-Dimethylamino-pyridin-3-ylamino)-5-(1H-indol-4-yl)-phenol]: the “MCF-7 G2/M Block 1 μM” value in experiment [1] is “Y (Y indicates a 50% or greater increase in the number of cells in the G2/M phase, as compared to control)”. The compound also had an activation at 0.1 µM in experiment [2] (Table 3) of no less than 50%.
Turning to `Nc1nccc(-c2cc(O)cc(-c3cccc4[nH]ccc34)c2)n1` [3-(2-Amino-pyrimidin-4-yl)-5-(1H-indol-4-yl)-phenol], the activation at 0.1 µM in experiment [1] was less than 50%; in experiment [2] (Table 4), no less than 50%.
On the same counts, the results for `CS(=O)(=O)Nc1cc(-c2nc3ccccc3o2)cc(-c2cccc3[nH]ccc23)c1` [N-[3-Benzoxazol-2-yl-5-(1H-indol-4-yl)-phenyl]-methanesulfonamide] are no less than 50% and no less than 50%.
`COC(=O)Nc1cc(C(=O)c2cc(C)nc(N(C)C)c2)cc(-c2cccc3[nH]ccc23)c1` [[3-(2-Dimethylamino-6-methyl-pyridine-4-carbonyl)-5-(1H-indol-4-yl)-phenyl]-carbamic acid methyl ester]: the activation at 0.1 µM in experiment [1] and in experiment [2] (Table 4) was no less than 50% each time.
With `Nc1nccc(-c2cc(Br)cc(-c3cccc4[nH]ccc34)c2)n1` [4-[3-Bromo-5-(1H-indol-4-yl)-phenyl]-pyrimidin-2-ylamine], the activation at 0.1 µM in experiment [1] and in experiment [2] (Table 4) was no less than 50% throughout.
As for `COC(=O)Nc1cc(Nc2ccc(C#N)nc2)cc(-c2cccc3[nH]ccc23)c1` [[3-(6-Cyano-pyridin-3-ylamino)-5-(1H-indol-4-yl)-phenyl]-carbamic acid methyl ester], the “MCF-7 G2/M Block 1 μM” value in experiment [1] was “Y (Y indicates a 50% or greater increase in the number of cells in the G2/M phase, as compared to control)”. The compound also displayed an activation at 0.1 µM in experiment [2] (Table 3) of less than 50%.
On to `CC(=O)Nc1cc(-c2cccc(C)c2)cc(-c2cccc3[nH]ccc23)c1` [N-[5-(1H-Indol-4-yl)-3′-methyl-biphenyl-3-yl]-acetamide], for which the activation at 0.1 µM in experiment [1] and in experiment [2] (Table 4) was no less than 50% each time.
In the case of `CCc1ncccc1Nc1cc(O)cc(-c2cccc3[nH]ccc23)c1` [3-(2-Ethyl-pyridin-3-ylamino)-5-(1H-indol-4-yl)-phenol], the “MCF-7 G2/M Block 1 μM” value in experiment [1] is given as “Y (Y indicates a 50% or greater increase in the number of cells in the G2/M phase, as compared to control)”. Further, the activation at 0.1 µM in experiment [2] (Table 3) was no less than 50%.
As for `COC(=O)Nc1cc(C(=O)c2cc(C)nc(C)c2)cc(-c2cccc3[nH]ccc23)c1` [[3-(2,6-Dimethyl-pyridine-4-carbonyl)-5-(1H-indol-4-yl)-phenyl]-carbamic acid methyl ester], the activation at 0.1 µM in experiment [1] and in experiment [2] (Table 4) was no less than 50% in each case.
Consider `CN(C)c1cc(C(=O)c2ccnc(N(C)C)c2)cc(-c2cccc3[nH]ccc23)c1` [[3-Dimethylamino-5-(1H-indol-4-yl)-phenyl]-(2-dimethylamino-pyridin-4-yl)-methanone], for which the results for the activation at 0.1 µM in experiment [1] and in experiment [2] (Table 4) were less than 50% and no less than 50%, respectively.
In the case of `Nc1ccc(-c2cccc3[nH]ccc23)cc1C(=O)c1cccnc1` [[2-Amino-5-(1H-indol-4-yl)-phenyl]-pyridin-3-yl-methanone], the “MCF-7 G2/M Block 1 μM” value in experiment [1] is listed as “Y (Y indicates a 50% or greater increase in the number of cells in the G2/M phase, as compared to control)”. Besides, the activation at 0.1 µM in experiment [2] (Table 3) was no less than 50%.
On to `CS(=O)(=O)Nc1cc(-c2cc(C(F)(F)F)ccc2F)cc(-c2cccc3[nH]ccc23)c1` [N-[2′-fluoro-5-(1H-indol-4-yl)-5′-trifluoromethyl-biphenyl-3-yl]-methanesulfonamide], for which the activation at 0.1 µM in experiment [1] and in experiment [2] (Table 4) was no less than 50% each time.
With `O=C(CO)Nc1cc(C(=O)c2ccnc(N3CCOCC3)c2)cc(-c2cccc3[nH]ccc23)c1` [2-Hydroxy-N-[3-(1H-indol-4-yl)-5-(2-morpholin-4-yl-pyridine-4-carbonyl)-phenyl]-acetamide], the activation at 0.1 µM in experiment [1] and in experiment [2] (Table 4) was no less than 50% throughout.
On to `COC(=O)Nc1cc(C(=O)c2cccnc2)cc(-c2ccc(F)c3[nH]ccc23)c1` [[3-(7-Fluoro-1H-indol-4-yl)-5-(pyridine-3-carbonyl)-phenyl]-carbamic acid methyl ester], for which the activation at 0.1 µM in experiment [1] and in experiment [2] (Table 4) was no less than 50% throughout.
Consider `COC(=O)Nc1cc(C(=O)c2ccnc(N3CCOCC3)c2)cc(-c2cccc3[nH]ccc23)c1` [[3-(1H-Indol-4-yl)-5-(2-morpholin-4-yl-pyridine-4-carbonyl)-phenyl]-carbamic acid methyl ester], for which the activation at 0.1 µM in experiment [1] and in experiment [2] (Table 4) was no less than 50% in each case.
`COc1ccc(-c2cc(NC(C)=O)cc(-c3cccc4[nH]ccc34)c2)cn1` [N-[3-(1H-Indol-4-yl)-5-(6-methoxy-pyridin-3-yl)-phenyl]-acetamide]: the activation at 0.1 µM in experiment [1] and in experiment [2] (Table 4) was no less than 50% in each case.
Consider `COc1cc(C(=O)c2cc(NS(C)(=O)=O)cc(-c3cccc4[nH]ccc34)c2)cc(C)n1` [N-[3-(1H-Indol-4-yl)-5-(2-methoxy-6-methyl-pyridine-4-carbonyl)-phenyl]-methanesulfonamide], for which the activation at 0.1 µM in experiment [1] and in experiment [2] (Table 4) was no less than 50% throughout.
